{"source": "paper PMC12267067", "about": "“Targeting GRPR for sex hormone-dependent cancer after loss of E-cadherin” (Nature, 2025)", "type_in_all_cases": "cell-based", "key": {"[1]": {"system": "mouse melanoma cell lines (1057, 1064, 1181, 1014)", "experiment": "Cell growth (cell counting), mouse melanoma cell lines", "conditions": "48 h", "experimental": "(§1) Six-well tissue-culture plates were seeded with 3 × 10^5 melanoma cells in complete medium. After 24 h, the medium was replaced by low-serum medium (0.5% for murine melanoma cell lines and 1% for human melanoma cells) and the cells were incubated for a further 18 h before stimulation with 10 nM GRP (4011670 bachem) and/or 1 µM RC (R9653, Sigma-Aldrich) for 48 h. The plates were trypsinized just after stimulation or 48 h later and the cells were counted. For the MTT assay, 10,000 cells were seeded per well in 96-well plates. After 24 h, cells were starved overnight and then treated with 10 nM GRP and/or 1 µM RC for 48 h in low-serum medium (0.5% FBS). Next, MTT (M5655, Sigma-Aldrich) was added to the wells to a final concentration of 0.5 mg ml^−1 and the plates were incubated for 3 h. The medium was removed and formazan crystals dissolved in 200 µl DMSO. The absorbance was read at 570 nm using a LUMIstar Omega […] (BMG Labtech). All growth experiments were done using three technical replicates and three biological replicates. For the clonogenic assay, six-well tissue-culture plates were seeded with 500 cells in complete medium. After 10 days (20 days for 1181), colonies were fixed with 4% PFA for 15 min and stained with 10% crystal violet in ethanol for 20 min and counted in images using ImageJ software. Experiments were done in triplicate."}, "[2]": {"system": "Yap1 in Grpr+ mouse melanoma cells (1057)", "experiment": "YAP1 nuclear localization (immunofluorescence)", "conditions": "1057 cells, 1 h, 10 nM GRP and/or 1 µM RC", "experimental": "Cells were seeded on coverslips and cultivated until 100% confluence was achieved. After 24 h of starvation in 0.5% FCS for murine melanoma cell lines and 1% FCS for human melanoma, the medium was complemented with 10 nM GRP and/or 1 µM RC for 1 h. Cells were fixed with 4% PFA for 15 min and blocked with 5% normal goat serum and 0.3% Triton X-100 in PBS. Cells were incubated overnight at 4 °C with anti-YAP D8H1X antibody (14074, cell Signaling, 1/100 dilution) in 1% BSA and 0.3% Triton X-100 followed by incubation for 1.5 h at room temperature with goat anti-rabbit Alexa fluor 594 (A-11012, Invitrogen, 1/500 dilution). Coverslips were mounted with Prolong Gold containing 1.5 µg ml^−1 DAPI (P36934, Invitrogen). Images were acquired using an inverted SP8 Leica confocal microscope (Leica Microsystem). YAP1 localization was evaluated using ImageJ Software."}, "[3]": {"system": "human melanoma cell lines (MDA-MB-435S, 501mel)", "experiment": "Cell growth (cell counting), human melanoma cell lines", "conditions": "48 h", "experimental": "as §1"}}, "note": "No end group written: not given here.", "data": [{"substance": "GRP: GRPR's natural agonist, endogenous ligand of GRPR (4011670 bachem) (VPLPAGGGTVLTKMYPRGNHWAVGHLM; not fully specified; ends and bridges not checked; UniProt P07492 24-50, looked up)", "values": [{"measurement": "cell growth, GRPR-positive mouse lines", "setting": "[1]; 1057 and 1064, 10 nM GRP and/or 1 µM RC, low serum 0.5%", "result": "promoted growth"}, {"measurement": "cell growth, GRPR-negative mouse cells", "setting": "[1]; 1181 and 1014, 10 nM GRP, low serum", "result": "had no effect"}, {"measurement": "YAP1 nuclear localization", "setting": "[2]", "result": "increased"}, {"measurement": "cell growth, GRPR-negative human cells", "setting": "[3]; 501mel, 10 nM GRP, low serum", "result": "had no effect"}, {"measurement": "cell growth, GRPR-positive human line", "setting": "[3]; MDA-MB-435S, 10 nM GRP and/or 1 µM RC, low serum 1%", "result": "promoted growth"}]}]}
